Data as given in patent publication US20080176810A1, “Use of 3, 4', 5-Trihydroxy-Stilbene-3-Beta-D-glucoside in Prepartion of Medicines For Treating and/or Preventing Ischemic Heart Disease” (SHENZHEN NEPTUNUS PHARMACEUTICAL CO., LTD., priority 2004, published 2008).
Where “and” joins values, the source holds several entries; their conditions need not be identical. Identical values can stand only once. Entries after “also recorded” stand apart in the source; their conditions may differ.

Experiments:
[1] = Pharmacokinetics of single-dose iv in Beagle dogs; settings: for maximum plasma drug concentration: dogs;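 for all read-outs here: plasma levels in healthy adult Beagle dogs, five per dose group, after slow forelimb iv injection over 5 min, parameters from non-compartmental statistical moment analysis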
Experimental: Pharmacokinetical studies were carried out in three groups at the doses of 10 mg/Kg, 20 mg/Kg and 30 mg/Kg. Five healthy adult Beagle dogs were chosen into each dose group. […] The intravenous injection was performed in one forelimb of each tested dog within 5 min in a very slow manner. Three hours after the intravenous injection, the dogs could be fed. 3 ml of venous blood was sampled in heparinized tubes from another forelimb of each tested dog before and 0, 5, 10, 20, 40, 60, 90, 120, 180, 240, 300, 360 and 480 min after administration. Blood samples were centrifuged to obtain 1 ml of plasma.
Non compartmental modeling method (statistical moment) was applied in the data analysis. Estimating formula of corresponding parameters is as follows:
AUC0˜τ=Σ(Ci+Ci−1)×(ti−ti−1)/2
AUC0˜∞=Σ(Ci+Ci−1)×(ti−ti−1)/2+Cn/λ
AUMC0˜∞=Σ(Citi+Ci−1ti−1)×(ti−ti−1)/2+Cn(1/λ^2+tn/λ)
Where, in the formula, λ indicates the number of terminal eliminating rate of the concentration-time curve. tn and Cn represent the latest time of blood-sampling and plasma drug concentration, respectively. Pharmacokinetical parameters such as tmax and Cmax take the corresponding measuring value of plasma samples.
These pharmacokinetic parameters are obtained with non compartmental modeling method.

[2] = system: vascular smooth muscle; settings: 0.02 mM~2 mM; cited from earlier work
[3] = system: chronic myocardial ischemia; assay: Chronic myocardial ischemia in rats, intragastric administration; assay type: in vivo, SD rats; settings: TSG 20 mg/kg intragastric, 6 weeks
Experimental: (1) Operation and Coronary artery ligation of Animal: 60 male SD rats, divided into two groups: 15 in sham operation group and 45 in operation group, were immobilized on their backs by anesthesia of urethane ip at the dose of 100 mg/kg. Electrocardiograph (ECG-6851C, made by Shanghai Photoelectrical & Electronic Medical Apparatus Co., Ltd.) was used to record II lead electrocardiogram. Tracheal intubation was performed and connected into an artificial respirator and thoracotomy was performed at the fourth intercostal space of left sternal border after the skin sterilization. With exposure of the heart, the ligation was conducted at 3-4 mm of the root of left anterior descending coronary artery. ECG was monitored during the whole process and the graph showing significant elevation and depression of ST segment as well as the elevated T-wave amplitude was viewed as the indexes for the success of coronary artery ligation. After the ligation, thorax was closed and the air was drawn out. Regular feeding was continued after the operation, and the intramuscular injection of Penicillin was performed to prevent infection in 1 week after the operation. Thoracotomy was performed in sham operation group without coronary artery ligation.
(2) Groups and administration: 5 weeks later, there were 11 rats survived in sham operation group, and 24 rats in operation group. […] Starting from the sixth week, drugs were administered 6 days per week, and continued for 6 weeks, but withdrawn on Sundays. The volume of the drug administered was 5 ml/kg.
(1) Evaluation of therapeutic effect: Therapeutic effect was evaluated at the 12th week after the operation. 30 min after the final administration, rats were immobilized on their backs and tracheal intubation was performed. Arteria Femoralis was separated or insertion of a catheter to record artery blood pressure. A cardiac catheter was inversely guided into left ventricular from right common carotid artery. Both catheters were connected with pressure sensor, and then the pressure signals were input into an electrophysiolograph Powerlab system 8s (ML785/8S, AD Instruments, made in Australia) after being amplified with carriers. Needle electrodes were subcutaneously inserted into four limbs to monitor the standard two lead ECG. A computer (chart4.12 software, ML785/8S, AD Instruments, made in Australia) was used to monitor and store data. Thirty min after the operation, heart rate (HR), blood pressure (BPm), left ventricular systolic pressure (LVSP), left ventricular diastolic pressure (LVDP), the maximal rate of left intraventricular pressure changes (+dp/dtmax), left ventricular end-diastolic pressure (LVEDP), ECG were observed. One hour later, animals were executed, and their left ventriculars were taken out. The left hearts were cut into slices of 5 mm in thickness, which were cleaned with normal saline and put into 0.025% nitroblue tetrazolium (N-BT, made by Swiss Fluka Chemistry Company) at 37° C. for staining. Normal myocardium was dyed into dark blue, and the myocardium in infarction area was not dyed, remaining still light-yellow. The infarction area was isolated from normal myocardium under an anatomic microscopy and the both weighed, separatively. The percentage (%) of the weight of infarct area to the weight of the whole was regarded as the index for measurement of the area of myocardial infarction.
Test results was expressed in x±s. […]

[4] = system: Kunming mice; assay: Acute toxicity test of mice, intravenous injection; settings: single dose tail intravenous injection
Experimental: Drugs were medicated via intravenous injection at different concentration in same volume, which was 20 ml/kg.
40 healthy Kunming mice were selected and randomly divided into 4 groups. Drugs were injected via tail vein at one time and the doses were 300 mg/kg, 425 mg/kg, 600 mg/kg and 850 mg/kg, respectively. Mice were constantly observed for 4 hours after the injection. After that, observations were carried out once in the morning and once in the afternoon for 7 days continuously. Signs of intoxation and time of death were recorded.

[5] = system: acute myocardial infarction; assay: Acute myocardial infarction in anesthetized dogs, oral (intragastric) administration; assay type: in vivo; settings: for weight of infarct myocardium: N-BT staining; for Weight of IM/Weight of LH: in % (unit assumed); for LDH: serum, 180 min; for ΔST: surface ECG, by row: r6 before, r7-r12 5,15,30,60,90,120 min after administration
Experimental: Drugs were administered intragastrically in equal volume at unequal concentration. […] After weighing, animals were anesthetized with 3% pentobarbital sodium iv at the dose of 30 mg/kg. Tracheal intubation was performed and anesthesia respirator (SC-M5, manufactured by Shanghai Medical Instrument Factory) was connected for mechanical ventilation (18 20 per min with tidal volume of 350 550 ml) after thoracotomy. Needle electrodes were punctured into four limbs and under chest skin for monitoring standard limb lead and V3 and ECG. Thoracotomy was performed at the third intercostal space of left sternal border and the fourth rib was removed for full exposure of heart. The pericardium was cut open to make a pericardium hammock. The coronary artery was dissociated from between the second and third branches of left anterior descending coronary artery, underneath which pass through silk threads for two-step ligation. On surface of heart were placed 30-point epicardial leads, to which four limbs were connected through needle-electrodes, which were in turn connected to Powerlab/8s (AD Instruments) with a multichannel switcher to record epicardial electrogram. Animal models of acute myocardial ischemia were prepared with the method of two-step ligation. […] NBT). While other part of myocardium was dyed to blue-black, the Infarct myocardium would not be colorated, which was then cut off and weighted. The results of experiment were shown in x±s and statistics were checked with t-test of non-matched pair. When p<0.05, it was judged that the differences were statistically significant.

[6] = Beagle dogs, single dose iv, 10 mg/Kg, non compartmental
[7] = Beagle dogs, single dose iv, 20 mg/Kg, non compartmental
[8] = Beagle dogs, single dose iv, 30 mg/Kg, non compartmental

3,4′,5-trihydroxy-stilbene-3-β-D-glucoside [TSG]
AUC0~∞ ([1]; 10 mg/kg iv): 315.42 ± 60.82 µg·min/mL and 315 µg·min/mL
terminal elimination half life (t1/2) ([1]; 10 mg/kg iv): 2.7978 ± 2.8483 h and 2.8 h
AUC0~∞ ([1]; 20 mg/kg iv): 745.75 ± 175.84 µg·min/mL and 745 µg·min/mL
terminal elimination half life (t1/2) ([1]; 20 mg/kg iv): 2.5175 ± 0.9553 h and 2.53 h
AUC0~∞ ([1]; 30 mg/kg iv): 1552.71 ± 227.28 µg·min/mL and 1552 µg·min/mL
terminal elimination half life (t1/2) ([1]; 30 mg/kg iv): 6.2182 ± 6.2163 h and 6.22 h
maximum plasma drug concentration ([1]; 30 mg/kg iv): 100 µg/mL
maximum plasma drug concentration ([1]; 30 mg/kg iv, listed as 3,4′,5-trihydroxy-stilbene-3-β-D-glucoside): about 100 μg/ml; also recorded: approximately 0.25 mM
AUC0~480 [1, 6]: 283.05 ± 49.85 µg·min/mL
AUC0~∞ [1, 6]: 315.42 ± 60.82 µg·min/mL
CI [1, 6]: 0.03 ± 0.01 L/min
MRT [1, 6]: 2.3343 ± 2.0812 h
Vss [1, 6]: 4.21 ± 3.06 L
t1/2 [1, 6]: 2.7978 ± 2.8483 h
AUC0~480 [1, 7]: 718.32 ± 179.10 µg·min/mL
AUC0~∞ [1, 7]: 745.75 ± 175.84 µg·min/mL
CI [1, 7]: 0.03 ± 0.01 L/min
MRT [1, 7]: 1.301 ± 0.204 h
Vss [1, 7]: 2.24 ± 0.78 L
t1/2 [1, 7]: 2.5175 ± 0.9553 h
AUC0~480 [1, 8]: 1432.17 ± 349.97 µg·min/mL
AUC0~∞ [1, 8]: 1552.71 ± 227.28 µg·min/mL
CI [1, 8]: 0.02 ± 0.00 L/min
MRT [1, 8]: 3.068 ± 4.0013 h
Vss [1, 8]: 4.25 ± 6.35 L
t1/2 [1, 8]: 6.2182 ± 6.2163 h
intracellular calcium concentration in vascular smooth muscle [2]: increase intracellular calcium concentration in vascular smooth muscle remarkably
+dp/dt max [3]: 1389 ± 142^Δ Kpa/s
BP [3]: 19.2 ± 1.8^Δ KPa
HR [3]: 354 ± 45^Δ p/min
LVEDP [3]: 0.82 ± 0.19^Δ KPa
LVSP [3]: 19.8 ± 2.1^Δ KPa
signs of intoxication [4]: body shaking, occasionally restlessness, twitch and other responses appeared
time of death after the drug injection [4]: 5 to 1440 min
weight of infarct myocardium ([5]; TSG 5 mg/kg oral): 5.98 ± 1.71 g
Weight of IM/Weight of LH ([5]; TSG 5 mg/kg oral): 10.8 ± 2.81
LDH ([5]; TSG 5 mg/kg oral): 159 ± 80.4 IU/L
ΔST ([5]; TSG 5 mg/kg oral, 5 min after administration): 0.70 ± 0.50 mV
ΔST ([5]; TSG 5 mg/kg oral, 15 min after administration): 0.71 ± 0.48 mV
ΔST ([5]; TSG 5 mg/kg oral, 30 min after administration): 0.73 ± 0.51 mV
ΔST ([5]; TSG 5 mg/kg oral, 60 min): 0.88 ± 0.54 mV
ΔST ([5]; TSG 5 mg/kg oral, 90 min after administration): 0.82 ± 0.49 mV
ΔST ([5]; TSG 5 mg/kg oral, 120 min after administration): 0.86 ± 0.52 mV
ΔST ([5]; TSG 5 mg/kg oral, Before administration): 0.66 ± 0.45 mV
weight of infarct myocardium ([5]; TSG 10 mg/kg oral): 3.17 ± 0.66 g
Weight of IM/Weight of LH ([5]; TSG 10 mg/kg oral): 6.61 ± 1.31
LDH ([5]; TSG 10 mg/kg oral): 140 IU/L
ΔST ([5]; TSG 10 mg/kg oral, 5 min after administration): 0.68 ± 0.51 mV
ΔST ([5]; TSG 10 mg/kg oral, 15 min after administration): 0.69 ± 0.52 mV
ΔST ([5]; TSG 10 mg/kg oral, 30 min after administration): 0.69 ± 0.45 mV
ΔST ([5]; TSG 10 mg/kg oral, 60 min): 0.70 ± 0.44 mV
ΔST ([5]; TSG 10 mg/kg oral, 90 min after administration): 0.75 ± 0.46 mV
ΔST ([5]; TSG 10 mg/kg oral, 120 min after administration): 0.81 ± 0.52 mV
ΔST ([5]; TSG 10 mg/kg oral, Before administration): 0.55 ± 0.40 mV
weight of infarct myocardium ([5]; TSG 20 mg/kg oral): 2.31 ± 0.70 g
Weight of IM/Weight of LH ([5]; TSG 20 mg/kg oral): 4.03 ± 0.61
LDH ([5]; TSG 20 mg/kg oral): 120 IU/L
